Blank lines part the entries; values can stand above or below the compound they belong to.
What was measured:
[1] = test system: CDK4/6i-resistant breast cancer cell line; details: Iida et al. 2020; cited from earlier work
[2] = test system: frontline patients; details: NCT01602380; cited from earlier work
[3] = test system: ER+ breast cancer models of ESR1-wild type and ESR1-mutation-bearing disease; assay: Xenograft models / ER+ breast cancer models
[4] = test system: ER (wild-type and ESR1-mutant contexts); assay: In vitro cell and biochemical assays, potency versus fulvestrant
[5] = Plasma protein binding / free concentration versus fulvestrant; assay type: in vitro ADME
[6] = biological target: T1, ER (Homo sapiens, UniProt P03372); assay: Competition with estrogens for binding to the ER
T1 sequence (P03372 1-595): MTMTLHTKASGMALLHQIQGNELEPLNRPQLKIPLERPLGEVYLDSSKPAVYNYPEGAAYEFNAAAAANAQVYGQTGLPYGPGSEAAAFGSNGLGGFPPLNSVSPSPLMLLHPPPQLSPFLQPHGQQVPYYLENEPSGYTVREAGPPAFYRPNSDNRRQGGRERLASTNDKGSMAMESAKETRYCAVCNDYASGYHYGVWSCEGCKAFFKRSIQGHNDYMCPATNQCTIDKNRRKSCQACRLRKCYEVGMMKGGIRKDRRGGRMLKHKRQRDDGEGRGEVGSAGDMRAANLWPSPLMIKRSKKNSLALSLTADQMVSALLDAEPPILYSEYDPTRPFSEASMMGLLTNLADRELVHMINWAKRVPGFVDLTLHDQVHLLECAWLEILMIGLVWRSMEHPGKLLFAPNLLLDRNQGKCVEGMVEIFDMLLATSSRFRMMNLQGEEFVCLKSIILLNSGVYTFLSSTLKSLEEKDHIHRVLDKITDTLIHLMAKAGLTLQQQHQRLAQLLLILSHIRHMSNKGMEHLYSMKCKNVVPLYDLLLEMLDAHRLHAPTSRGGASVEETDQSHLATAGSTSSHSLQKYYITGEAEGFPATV

[7] = Human steady-state total drug exposure versus fulvestrant; assay type: in vivo; details: GDC-9545 30 mg QD versus fulvestrant 500 mg IM monthly

Structure (SMILES): CO[C@H]1C[C@@H]2CC[C@@H](C)[C@@](O)(O2)C(=O)C(=O)N2CCCC[C@H]2C(=O)O[C@H]([C@H](C)C[C@@H]2CC[C@@H](OCCO)[C@H](OC)C2)CC(=O)[C@H](C)/C=C(\C)[C@@H](O)[C@@H](OC)C(=O)[C@H](C)C[C@H](C)/C=C/C=C/C=C/1C [everolimus]
- response of resistant cells in cell growth analysis [1]: remain responsive

Structure (SMILES): Cc1nc(NC(=O)N2CCC[C@H]2C(N)=O)sc1-c1ccnc(C(C)(C)C(F)(F)F)c1 [alpelisib]
- response of resistant cells in cell growth analysis [1]: remain responsive

Structure (SMILES): C[C@]12CC[C@@H]3c4ccc(O)cc4C[C@@H](CCCCCCCCC[S+]([O-])CCCC(F)(F)C(F)(F)F)[C@H]3[C@@H]1CC[C@@H]2O (stereo partly shown) [Fulvestrant, reference compound]
- clinical benefit versus anastrozole [2]: benefit over anastrozole
- efficacy in xenograft models compared with GDC-9545 ([3]; fulvestrant dosed according to a clinically relevant dosing scheme): less efficacious than GDC-9545

- free concentration compared with fulvestrant [5]: higher
- plasma protein binding compared with fulvestrant [5]: lower
- potency of competition with estrogens for binding to the ER [6]: low nanomolar potency
- human steady-state total drug exposure relative to fulvestrant [7]: approximately 10 fold
Structure (SMILES): C[C@@H]1Cc2c([nH]c3ccccc23)[C@@H](c2c(F)cc(NC3CN(CCCF)C3)cc2F)N1CC(F)(F)CO [GDC-9545, 3-((1R,3R)-1-(2,6-difluoro-4-((1-(3-fluoropropyl)azetidin-3-yl)amino)phenyl)-3-methyl-1,3,4,9-tetrahydro-2H-pyrido[3,4-b]indol-2-yl)-2,2-difluoropropan-1-ol]
- potency relative to fulvestrant [4]: up to 10 times
- nonclinical activity in ER+ breast cancer models ([3]; ESR1-wild type and ESR1-mutation-bearing disease): robust nonclinical activity

Source: patent US20230381156A1, “TREATMENT OF BREAST CANCER USING COMBINATION THERAPIES COMPRISING GDC-9545 AND IPATASERTIB” (Genentech, Inc., priority 2021, published 2023)
